Measurements reported in patent US10035800B2 (AbbVie Inc., priority 2013, dated 2018).
Several values for one entry are separate records, joined by “and”; a condition that tells them apart may be missing. Identical values can stand only once. Like-named read-outs stand apart in the source and are kept apart here. Marks after values point to notes of the source that are not given here.

Legend:
[1] = test system: IL-6 (Interleukin-6) production; experiment: LPS (lipopolysaccharide) induced IL-6 production mouse assay; format: in vivo, mice; conditions: oral administration 1 h before LPS 2.5 mg/kg ip, serum 2 h after LPS, p < 0.05 vs vehicle
How it was run: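 Female Fox Chase SCID or CD1 mice (5 per group) were dosed orally with compound, then given an intraperitoneal LPS challenge of 2.5 mg/kg one hour later. Serum was collected 2 h after LPS, diluted 1:20 and assayed for IL-6 by Meso Scale electrochemiluminescence. Treated groups were compared with vehicle by Dunnett's one-way ANOVA, with p<0.05 taken as significant.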

OPM-2 xenograft tumors = conditions: SCID-beige mice
Experimental: Xenograft Tumor Growth Inhibition Assay
A suspension of cancer cells (5×10^6 per 0.1 mL) prepared in RPMI culture medium (Invitrogen, Carlsbad, Calif.) was diluted 1:1 with a solution of Matrigel™ (BD Biosciences, Franklin Lakes, N.J.) and inoculated subcutaneously into the right hind flank of female SCID-beige (Charles River Labs) mice. Randomization into treatment and vehicle control groups (8-10/group) occurred when the mean tumor volume reached approximately 250 mm^3. Compounds were formulated in 2.5% DMSO, 10% ethanol, 27.5% PEG 400, 60% Phosol 53 MCT. Administration of compound or vehicle was initiated on the day following randomization and continued for 21 days. Tumors were measured twice a week throughout the treatment period using a pair of calipers and tumor volumes were calculated according to the formula V=L×W^2/2 (V: volume, mm^3; L: length, mm. W: width, mm).

BRD4 (BDI_K57-E168) = target: T1, BRD4 (BDI_K57-E168) (Homo sapiens, UniProt O60885); experiment: TR-FRET bromodomain binding assay, first bromodomain of BRD4; conditions: TR-FRET assay protocol G (compound 0.92 μM-15 pM); 100 nM probe
T1 construct: BD1: amino acids K57-E168; made in house
How it was run: (§1)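 TR-FRET displacement of an Alexa647-labelled BET-inhibitor probe from His-tagged BRD4 BD1 or BD2 (8 nM), read via 1 nM Eu-anti-His antibody after 1 h at room temperature. Buffer was 20 mM sodium phosphate pH 6.0 with 2% DMSO. Probe was 100 nM for BDI and 30 nM for BDII. IC50 came from 4-parameter fits, and Ki from IC50, probe Kd and probe concentration.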

BRD4 (BDII_E352-M457) = target: T2, BRD4 (BDII_E352-M457) (Homo sapiens, UniProt O60885); experiment: TR-FRET bromodomain binding assay, second bromodomain of BRD4; conditions: TR-FRET assay protocol G (compound 0.92 μM-15 pM); 30 nM probe
T2 construct: protocol; made in house
How it was run: as §1

[2] = test system: breast cancer cell line MX-1; experiment: MX-1 cell line proliferation assay; format: cell-based; conditions: MX-1 cells, 3-day proliferation assay, Cell Titer Glo; read-out: Cellular proliferation: EC50
How it was run: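 MX-1 cells at 5000/well, in RPMI 1640 with 10% FBS, were exposed to compounds for 3 days. Final concentrations ranged 3 μM–0.1 nM or 1 μM–0.03 nM, in 3-fold steps. Cell Titer Glo luminescence was normalized to DMSO and fitted sigmoidally for EC50; overall MSR 2.1.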

Ki (BRD4 (BDI_K57-E168)) [nM] | Ki (BRD4 (BDII_E352-M457)) [nM] | EC50 [2] [nM] | SMILES | % inhibition of LPS induced IL-6 production ([1]; mouse strain SCID) [%] | % TGI (OPM-2 xenograft tumors; 1.5 mg/kg IP, QD x21) | % TGI (OPM-2 xenograft tumors; 1.5 mg/kg PO, QD x21) | % TGI (OPM-2 xenograft tumors; 3 mg/kg IP, QD x21) | % TGI (OPM-2 xenograft tumors; 3 mg/kg PO, 3 on 4 off x3 weeks) | % TGI (OPM-2 xenograft tumors; 3 mg/kg PO, QD x11) | % TGI (OPM-2 xenograft tumors; 3 mg/kg PO, QD x21) | % inhibition of LPS induced IL-6 production ([1]; mouse strain CD1) [%] | % TGI (OPM-2 xenograft tumors; 1.25 mg/kg PO, QD x21) | % TGI (OPM-2 xenograft tumors; 2.5 mg/kg PO, QD x21) | % TGI (OPM-2 xenograft tumors; 5 mg/kg PO, QD x21)
1.34 | 0.472 | 4 | Cn1cc2c3c(c[nH]c3c1=O)CN(c1ccc(F)cc1F)c1ccc(CS(C)(=O)=O)cc1-2 [Example 12, 4-(2,4-difluorophenyl)-10-methyl-7-((methylsulfonyl)methyl)-3,4-dihydro-1H-1,4,10-triazadibenzo[cd,f]azulen-11(10H)-one] | 90 | 82** % and 91*** % | 87*** % | 89** % | 81*** % | 72*** % | 94*** % |  |  |  | 
0.81 | 1.21 | 10.8 | Cn1cc2c3c(c(C#N)[nH]c3c1=O)CN(c1ccc(Cl)cc1)c1ccc(CS(C)(=O)=O)cc1-2 [Example 199, 4-(4-chlorophenyl)-10-methyl-7-((methylsulfonyl)methyl)-11-oxo-3,4,10,11-tetrahydro-1H-1,4,10-triazadibenzo[cd,f]azulene-2-carbonitrile] |  |  |  |  |  |  |  | 90 | 91*** % |  | 
1.14 | 1.72 | 3.82 | Cn1cc2c3c(c[nH]c3c1=O)CN(C1CCC(NC(=O)OC(C)(C)C)CC1)c1ccc(CS(C)(=O)=O)cc1-2 (mixture of isomers) [Example 196] |  |  |  |  |  |  |  | 79 |  | 84*** % | 92*** %
